# From US20210045385A1, “PYRIDAZINONE-SUBSTITUTED KETOXIMES AS HERBICIDES” (FMC Corporation, priority 2018, published 2021)
# Key:
# Assay type in all cases: in vivo
# corn (Zea mays) = assay: Test A postemergence, visual plant response rating; conditions: for Corn plant response rating (0 to 100 scale): 500 g ai/ha, postemergence, 0 is no effect, 100 is complete control; for Corn plant response rating: Postemergence, 125 g ai/ha, 0 to 100 scale (0 no effect, 100 complete control)
# In short: (§1)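 Compared with untreated controls, treated plants received a visual injury score on a 0–100 scale around 10 days after application. The compound, in a non-phytotoxic solvent with surfactant, was given as a preemergence soil spray or postemergence at the one- to two-leaf stage.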
# [1] = tested on: foxtail, giant (giant foxtail, Setaria faberii); assay: Test A postemergence, visual plant response rating; conditions: for Foxtail, Giant plant response rating (0 to 100 scale): 500 g ai/ha, postemergence, 0 is no effect, 100 is complete control; for Foxtail, Giant plant response rating: Postemergence, 125 g ai/ha, 0 to 100 scale (0 no effect, 100 complete control)
# In short: as §1
# [2] = tested on: pigweed (Amaranthus retroflexus); assay: Test A postemergence, visual plant response rating; conditions: for Pigweed plant response rating (0 to 100 scale): 500 g ai/ha, postemergence, 0 is no effect, 100 is complete control; for Pigweed plant response rating: Postemergence, 125 g ai/ha, 0 to 100 scale (0 no effect, 100 complete control)
# In short: as §1
# [3] = tested on: barnyardgrass (Echinochloa crus-galli); assay: Test A postemergence, visual plant response rating; conditions: for Barnyardgrass plant response rating (0 to 100 scale): 500 g ai/ha, postemergence, 0 is no effect, 100 is complete control; for Barnyardgrass plant response rating: Postemergence, 125 g ai/ha, 0 to 100 scale (0 no effect, 100 complete control)
# In short: as §1
# [4] = tested on: blackgrass (Alopecurus myosuroides); assay: Test A postemergence, visual plant response rating; conditions: for Blackgrass plant response rating (0 to 100 scale): 500 g ai/ha, postemergence, 0 is no effect, 100 is complete control; for Blackgrass plant response rating: Postemergence, 125 g ai/ha, 0 to 100 scale (0 no effect, 100 complete control)
# In short: as §1
# [5] = tested on: Italian ryegrass (Lolium multiflorum); assay: Test A postemergence, visual plant response rating; conditions: for Ryegrass, Italian plant response rating (0 to 100 scale): 500 g ai/ha, postemergence, 0 is no effect, 100 is complete control; for Ryegrass, Italian plant response rating: Postemergence, 125 g ai/ha, 0 to 100 scale (0 no effect, 100 complete control)
# In short: as §1
# kochia (Kochia scoparia) [6] = assay: Test A postemergence, visual plant response rating; conditions: for Kochia plant response rating (0 to 100 scale): 500 g ai/ha, postemergence, 0 is no effect, 100 is complete control; for Kochia plant response rating: Postemergence, 125 g ai/ha, 0 to 100 scale (0 no effect, 100 complete control)
# In short: as §1
# [7] = tested on: wheat (Triticum aestivum); assay: Test A postemergence, visual plant response rating; conditions: for Wheat plant response rating (0 to 100 scale): 500 g ai/ha, postemergence, 0 is no effect, 100 is complete control; for Wheat plant response rating: Postemergence, 125 g ai/ha, 0 to 100 scale (0 no effect, 100 complete control)
# In short: as §1
# [8] = tested on: ragweed (common ragweed, Ambrosia elatior); assay: Test A postemergence, visual plant response rating; conditions: for Ragweed plant response rating (0 to 100 scale): 500 g ai/ha, postemergence, 0 is no effect, 100 is complete control; for Ragweed plant response rating: Postemergence, 125 g ai/ha, 0 to 100 scale (0 no effect, 100 complete control)
# In short: as §1
# [9] = tested on: galium (catchweed bedstraw, Galium aparine); assay: Test A postemergence, visual plant response rating; conditions: for Galium plant response rating (0 to 100 scale): 500 g ai/ha, postemergence, 0 is no effect, 100 is complete control; for Galium plant response rating: Postemergence, 125 g ai/ha, 0 to 100 scale (0 no effect, 100 complete control)
# In short: as §1
# [10] = tested on: barnyardgrass (Echinochloa crus-galli); assay: Test B flooded paddy test, visual plant response rating; conditions: 250 g ai/ha, Flood, applied to paddy water, 2-leaf stage, evaluated after 13 to 15 days
# In short: (§2)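 Test pots are flooded 3 cm above the soil at treatment, and the test substance is introduced into this standing water. After keeping the flood level and growing plants, treated at the 2-leaf stage, for 13 to 15 days under glass, injury is assessed visually versus controls.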
# rice (Oryza sativa) = assay: as above; conditions: 250 g ai/ha, Flood, applied to paddy water, 2-leaf stage, evaluated after 13 to 15 days
# In short: as §2
# [11] = tested on: sedge, umbrella (small-flower umbrella sedge, Cyperus difformis); assay: as above; conditions: 250 g ai/ha, Flood, applied to paddy water, 2-leaf stage, evaluated after 13 to 15 days
# In short: as §2
# [12] = tested on: ducksalad (Heteranhera limosa); assay: as above; conditions: 250 g ai/ha, Flood, applied to paddy water, 2-leaf stage, evaluated after 13 to 15 days
# In short: as §2
# [13] = tested on: foxtail, giant (giant foxtail, Setaria faberii); assay: Test A preemergence, visual plant response rating; conditions: for Foxtail, Giant plant response rating: 125 g ai/ha, preemergence, 0 to 100 scale, 0 no effect, 100 complete control; for Foxtail, Giant plant response rating (0 to 100 scale): 500 g ai/ha Preemergence, approx. 10 days
# In short: as §1
# [14] = tested on: pigweed (Amaranthus retroflexus); assay: Test A preemergence, visual plant response rating; conditions: for Pigweed plant response rating: 125 g ai/ha, preemergence, 0 to 100 scale, 0 no effect, 100 complete control; for Pigweed plant response rating (0 to 100 scale): 500 g ai/ha Preemergence, approx. 10 days
# In short: as §1
# [15] = tested on: barnyardgrass (Echinochloa crus-galli); assay: Test A preemergence, visual plant response rating; conditions: for Barnyardgrass plant response rating: 125 g ai/ha, preemergence, 0 to 100 scale, 0 no effect, 100 complete control; for Barnyardgrass plant response rating (0 to 100 scale): 500 g ai/ha Preemergence, approx. 10 days
# In short: as §1
# [16] = tested on: Italian ryegrass (Lolium multiflorum); assay: Test A preemergence, visual plant response rating; conditions: for Ryegrass, Italian plant response rating: 125 g ai/ha, preemergence, 0 to 100 scale, 0 no effect, 100 complete control; for Ryegrass, Italian plant response rating (0 to 100 scale): 500 g ai/ha Preemergence, approx. 10 days
# In short: as §1
# kochia (Kochia scoparia) [17] = assay: Test A preemergence, visual plant response rating; conditions: for Kochia plant response rating: 125 g ai/ha, preemergence, 0 to 100 scale, 0 no effect, 100 complete control; for Kochia plant response rating (0 to 100 scale): 500 g ai/ha Preemergence, approx. 10 days
# In short: as §1
# [18] = tested on: ragweed (common ragweed, Ambrosia elatior); assay: Test A preemergence, visual plant response rating; conditions: for Ragweed plant response rating: 125 g ai/ha, preemergence, 0 to 100 scale, 0 no effect, 100 complete control; for Ragweed plant response rating (0 to 100 scale): 500 g ai/ha Preemergence, approx. 10 days
# In short: as §1
SMILES,Corn plant response rating (0 to 100 scale) (corn (Zea mays)),Corn plant response rating (corn (Zea mays)),"Foxtail, Giant plant response rating (0 to 100 scale) [1]","Foxtail, Giant plant response rating [1]",Pigweed plant response rating (0 to 100 scale) [2],Pigweed plant response rating [2],Barnyardgrass plant response rating (0 to 100 scale) [3],Barnyardgrass plant response rating [3],Blackgrass plant response rating (0 to 100 scale) [4],Blackgrass plant response rating [4],"Ryegrass, Italian plant response rating (0 to 100 scale) [5]","Ryegrass, Italian plant response rating [5]",Kochia plant response rating (0 to 100 scale) (kochia (Kochia scoparia) [6]),Kochia plant response rating (kochia (Kochia scoparia) [6]),Wheat plant response rating (0 to 100 scale) [7],Wheat plant response rating [7],Ragweed plant response rating (0 to 100 scale) [8],Ragweed plant response rating [8],Galium plant response rating (0 to 100 scale) [9],Galium plant response rating [9],other results
CON=C(c1c(O)c(C)nn(C)c1=O)c1cccc2sccc12 [Compound 59],20,0,60,40,90,80,50,30,80,70,100,80,80,80,0,0,80,60,90,70,"Plant response rating, Barnyardgrass (0 to 100 scale, 0 is no effect, 100 is complete control) [10]: 0; Plant response rating, Rice (0 to 100 scale, 0 is no effect, 100 is complete control) (rice (Oryza sativa)): 0; Plant response rating, Sedge, Umbrella (0 to 100 scale, 0 is no effect, 100 is complete control) [11]: 0; Plant response rating, Ducksalad (0 to 100 scale, 0 is no effect, 100 is complete control) [12]: 0; Foxtail, Giant plant response rating [13]: 30; Foxtail, Giant plant response rating (0 to 100 scale) [13]: 70; Pigweed plant response rating [14]: 0; Pigweed plant response rating (0 to 100 scale) [14]: 70; Barnyardgrass plant response rating [15]: 0; Barnyardgrass plant response rating (0 to 100 scale) [15]: 30; Ryegrass, Italian plant response rating [16]: 30; Ryegrass, Italian plant response rating (0 to 100 scale) [16]: 90; Kochia plant response rating (kochia (Kochia scoparia) [17]): 10; Kochia plant response rating (0 to 100 scale) (kochia (Kochia scoparia) [17]): 60; Ragweed plant response rating [18]: 30; Ragweed plant response rating (0 to 100 scale) [18]: 100"
CCO/N=C(/c1c(O)c(C)nn(C)c1=O)c1cccc2ccccc12 [Compound 78],30,20,80,70,90,80,80,40,80,70,40,30,70,60,0,0,90,80,100,90,"Plant response rating, Barnyardgrass (0 to 100 scale, 0 is no effect, 100 is complete control) [10]: 0; Plant response rating, Rice (0 to 100 scale, 0 is no effect, 100 is complete control) (rice (Oryza sativa)): 0; Plant response rating, Sedge, Umbrella (0 to 100 scale, 0 is no effect, 100 is complete control) [11]: 0; Plant response rating, Ducksalad (0 to 100 scale, 0 is no effect, 100 is complete control) [12]: 0; Foxtail, Giant plant response rating [13]: 80; Foxtail, Giant plant response rating (0 to 100 scale) [13]: 90; Pigweed plant response rating [14]: 20; Pigweed plant response rating (0 to 100 scale) [14]: 100; Barnyardgrass plant response rating [15]: 80; Barnyardgrass plant response rating (0 to 100 scale) [15]: 80; Ryegrass, Italian plant response rating [16]: 30; Ryegrass, Italian plant response rating (0 to 100 scale) [16]: 50; Kochia plant response rating (kochia (Kochia scoparia) [17]): 10; Kochia plant response rating (0 to 100 scale) (kochia (Kochia scoparia) [17]): 30; Ragweed plant response rating [18]: 90; Ragweed plant response rating (0 to 100 scale) [18]: 90"
